Values quoted from earlier work as cited in patent US20040048805A1, “Antilipemic agents” (priority 2003, published 2004).

Tested on: HMG-CoA reductase
Conditions: oral administration to rabbits; Arterioscler Thromb Vasc Biol. 1998; 18: 1304

SMILES: CCC(CC)CC(=O)c1c(C(=O)OC)c(-c2ccc(OC)c(OC)c2)c2c(OC)c(OC)c(OC)cc2c1O [compound A, methyl 1-(3,4-dimethoxyphenyl)-3-(3-ethylvaleryl)-4-hydroxy-6,7,8-trimethoxy-2-naphtoate]
- HMG-CoA reductase activity in the liver: increased the HMG-CoA reductase activity in the liver
